Reference: the kinase profiling compilation of Christmann-Franck et al. (2016)

What was measured:
Assay in all cases: radiometric filter-binding kinase assay, Kinase HotSpot
Conditions in all cases: compound 0.5 µM; ATP 10 µM
ACVRL1 (human) = ACVRL1 (human) (UniProt P37023)
AURKA (human) = AURKA (human) (UniProt O14965)
CDK1 CCNB1 (human) = CDK1 CCNB1 (human) (UniProt P06493+P14635)
CDK2 CCNA2 (human) = CDK2 CCNA2 (human) (UniProt P24941+P20248)
CDK4 CCND3 (human) = CDK4 CCND3 (human) (UniProt P30281+P11802)
CDK5 CDK5R1 p25 (human) = CDK5 CDK5R1 p25 (human) (UniProt Q00535+Q15078)
CLK4 (human) = CLK4 (human) (UniProt Q9HAZ1)
CSNK2A1 (human) = CSNK2A1 (human) (UniProt P68400)
CSNK2A2 (human) = CSNK2A2 (human) (UniProt P19784)
EPHA1 (human) = EPHA1 (human) (UniProt P21709)
EPHA2 (human) = EPHA2 (human) (UniProt P29317)
EPHB3 (human) = EPHB3 (human) (UniProt P54753)
ERBB2 (human) = ERBB2 (human) (UniProt P04626)
FGFR4 (human) = FGFR4 (human) (UniProt P22455)
[1] = test system: FLT4 (human), P35916 [Q890H]
GRK4 (human) = GRK4 (human) (UniProt P32298)
GRK6 (human) = GRK6 (human) (UniProt P43250)
HCK (human) = HCK (human) (UniProt P08631)
HIPK2 (human) = HIPK2 (human) (UniProt Q9H2X6)
MAP3K9 (human) = MAP3K9 (human) (UniProt P80192)
MAPKAPK3 (human) = MAPKAPK3 (human) (UniProt Q16644)
MET (human) = MET (human) (UniProt P08581)
NEK11 (human) = NEK11 (human) (UniProt Q8NG66)
NTRK1 (human) = NTRK1 (human) (UniProt P04629)
NUAK2 (human) = NUAK2 (human) (UniProt Q9H093)
PIM1 (human) = PIM1 (human) (UniProt P11309)
PKN2 (human) = PKN2 (human) (UniProt Q16513)
PNCK (human) = PNCK (human) (UniProt Q6P2M8)
PRKCE (human) = PRKCE (human) (UniProt Q02156)
ROS1 (human) = ROS1 (human) (UniProt P08922)
RPS6KA3 KD1 KD2 (human) = RPS6KA3 KD1 KD2 (human) (UniProt P51812)
RPS6KA4 KD2 (human) = RPS6KA4 KD2 (human) (UniProt O75676)
RPS6KB2 (human) = RPS6KB2 (human) (UniProt Q9UBS0)
SRMS (human) = SRMS (human) (UniProt Q9H3Y6)
SRPK2 (human) = SRPK2 (human) (UniProt P78362)
TBK1 (human) = TBK1 (human) (UniProt Q9UHD2)
ULK1 (human) = ULK1 (human) (UniProt O75385)
ULK2 (human) = ULK2 (human) (UniProt Q8IYT8)
VRK1 (human) = VRK1 (human) (UniProt Q99986)
WEE1 (human) = WEE1 (human) (UniProt P30291)
WNK2 (human) = WNK2 (human) (UniProt Q9Y3S1)

Sequence of PKN2 (human) (Q16513 whole entry, looked up): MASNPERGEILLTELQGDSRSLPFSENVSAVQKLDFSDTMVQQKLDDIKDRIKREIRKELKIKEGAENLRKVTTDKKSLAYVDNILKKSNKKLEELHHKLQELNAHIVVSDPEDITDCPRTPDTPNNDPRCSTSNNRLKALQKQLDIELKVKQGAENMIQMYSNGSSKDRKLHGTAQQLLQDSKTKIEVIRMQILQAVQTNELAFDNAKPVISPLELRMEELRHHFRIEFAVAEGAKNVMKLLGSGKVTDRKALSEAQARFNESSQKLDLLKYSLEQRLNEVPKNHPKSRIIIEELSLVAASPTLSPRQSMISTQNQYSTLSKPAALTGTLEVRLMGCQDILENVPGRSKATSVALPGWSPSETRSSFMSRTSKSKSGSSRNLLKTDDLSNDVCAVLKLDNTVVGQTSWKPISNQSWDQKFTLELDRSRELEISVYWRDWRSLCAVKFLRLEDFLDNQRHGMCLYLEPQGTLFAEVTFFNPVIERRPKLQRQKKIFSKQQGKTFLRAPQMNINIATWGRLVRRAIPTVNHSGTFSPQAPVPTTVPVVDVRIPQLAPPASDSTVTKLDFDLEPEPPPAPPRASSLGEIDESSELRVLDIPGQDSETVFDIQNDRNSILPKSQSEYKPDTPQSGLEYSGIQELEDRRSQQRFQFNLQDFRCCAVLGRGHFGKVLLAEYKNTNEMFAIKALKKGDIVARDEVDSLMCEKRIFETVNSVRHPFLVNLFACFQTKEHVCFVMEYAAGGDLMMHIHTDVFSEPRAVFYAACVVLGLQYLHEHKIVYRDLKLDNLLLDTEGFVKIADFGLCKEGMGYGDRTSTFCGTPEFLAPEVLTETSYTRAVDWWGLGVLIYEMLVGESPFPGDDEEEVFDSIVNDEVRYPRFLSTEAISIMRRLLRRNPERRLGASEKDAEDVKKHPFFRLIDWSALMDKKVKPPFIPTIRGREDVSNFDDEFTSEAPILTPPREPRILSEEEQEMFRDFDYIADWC
Sequence of CDK2 CCNA2 (human) (P20248 whole entry, looked up, other chains not shown): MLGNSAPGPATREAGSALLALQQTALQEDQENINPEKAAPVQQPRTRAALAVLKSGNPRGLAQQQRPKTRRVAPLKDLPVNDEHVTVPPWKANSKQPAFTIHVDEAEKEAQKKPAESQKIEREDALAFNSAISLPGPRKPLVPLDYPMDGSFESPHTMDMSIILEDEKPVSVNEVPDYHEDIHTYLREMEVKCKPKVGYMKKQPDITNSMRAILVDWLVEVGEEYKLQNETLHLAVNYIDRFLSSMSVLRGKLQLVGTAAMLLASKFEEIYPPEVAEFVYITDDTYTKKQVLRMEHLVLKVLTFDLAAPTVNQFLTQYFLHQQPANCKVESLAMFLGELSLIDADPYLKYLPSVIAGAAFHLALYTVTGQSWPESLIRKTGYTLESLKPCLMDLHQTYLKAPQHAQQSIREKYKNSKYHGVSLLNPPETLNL
Sequence of ERBB2 (human) (P04626 whole entry, looked up): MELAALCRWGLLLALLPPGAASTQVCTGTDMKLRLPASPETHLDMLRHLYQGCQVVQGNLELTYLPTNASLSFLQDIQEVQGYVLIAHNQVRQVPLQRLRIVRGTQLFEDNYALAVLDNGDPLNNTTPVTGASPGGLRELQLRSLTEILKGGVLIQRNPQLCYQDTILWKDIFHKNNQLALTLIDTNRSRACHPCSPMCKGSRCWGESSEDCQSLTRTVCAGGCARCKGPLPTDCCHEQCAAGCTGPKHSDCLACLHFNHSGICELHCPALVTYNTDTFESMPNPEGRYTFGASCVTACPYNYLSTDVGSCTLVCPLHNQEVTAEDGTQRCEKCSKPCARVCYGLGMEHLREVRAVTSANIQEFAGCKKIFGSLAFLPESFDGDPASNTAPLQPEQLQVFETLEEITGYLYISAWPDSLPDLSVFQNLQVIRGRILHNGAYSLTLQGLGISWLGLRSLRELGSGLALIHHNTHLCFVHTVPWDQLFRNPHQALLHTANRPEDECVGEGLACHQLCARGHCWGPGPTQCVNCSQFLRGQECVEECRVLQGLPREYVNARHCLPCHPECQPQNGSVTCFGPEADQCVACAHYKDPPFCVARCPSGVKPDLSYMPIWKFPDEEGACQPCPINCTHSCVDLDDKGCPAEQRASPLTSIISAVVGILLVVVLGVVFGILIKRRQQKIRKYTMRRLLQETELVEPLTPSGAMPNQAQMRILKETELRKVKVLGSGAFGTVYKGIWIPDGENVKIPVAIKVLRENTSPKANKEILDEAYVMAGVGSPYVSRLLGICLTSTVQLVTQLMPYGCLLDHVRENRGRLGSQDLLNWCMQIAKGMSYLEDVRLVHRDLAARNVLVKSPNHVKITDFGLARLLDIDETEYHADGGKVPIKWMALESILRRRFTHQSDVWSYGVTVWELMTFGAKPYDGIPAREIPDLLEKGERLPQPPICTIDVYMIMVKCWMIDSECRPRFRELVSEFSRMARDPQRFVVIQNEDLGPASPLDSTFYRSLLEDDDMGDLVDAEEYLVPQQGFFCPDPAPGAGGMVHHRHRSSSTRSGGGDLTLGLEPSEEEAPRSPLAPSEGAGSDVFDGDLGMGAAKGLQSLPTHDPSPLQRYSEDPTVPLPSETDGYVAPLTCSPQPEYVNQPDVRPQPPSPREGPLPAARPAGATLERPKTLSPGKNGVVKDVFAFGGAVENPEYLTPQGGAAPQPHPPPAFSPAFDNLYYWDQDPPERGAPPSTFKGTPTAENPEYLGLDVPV
Sequence of AURKA (human) (O14965 whole entry, looked up): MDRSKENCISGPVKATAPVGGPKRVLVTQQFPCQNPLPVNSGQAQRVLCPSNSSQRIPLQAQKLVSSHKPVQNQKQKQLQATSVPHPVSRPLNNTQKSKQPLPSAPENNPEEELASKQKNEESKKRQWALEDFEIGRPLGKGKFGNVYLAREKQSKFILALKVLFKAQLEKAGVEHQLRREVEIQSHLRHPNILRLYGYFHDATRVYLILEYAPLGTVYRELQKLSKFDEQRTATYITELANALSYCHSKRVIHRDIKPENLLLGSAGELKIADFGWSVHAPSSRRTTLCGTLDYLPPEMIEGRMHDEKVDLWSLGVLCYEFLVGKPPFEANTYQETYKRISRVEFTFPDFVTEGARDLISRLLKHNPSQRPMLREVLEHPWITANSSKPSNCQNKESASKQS
Sequence of ACVRL1 (human) (P37023 whole entry, looked up): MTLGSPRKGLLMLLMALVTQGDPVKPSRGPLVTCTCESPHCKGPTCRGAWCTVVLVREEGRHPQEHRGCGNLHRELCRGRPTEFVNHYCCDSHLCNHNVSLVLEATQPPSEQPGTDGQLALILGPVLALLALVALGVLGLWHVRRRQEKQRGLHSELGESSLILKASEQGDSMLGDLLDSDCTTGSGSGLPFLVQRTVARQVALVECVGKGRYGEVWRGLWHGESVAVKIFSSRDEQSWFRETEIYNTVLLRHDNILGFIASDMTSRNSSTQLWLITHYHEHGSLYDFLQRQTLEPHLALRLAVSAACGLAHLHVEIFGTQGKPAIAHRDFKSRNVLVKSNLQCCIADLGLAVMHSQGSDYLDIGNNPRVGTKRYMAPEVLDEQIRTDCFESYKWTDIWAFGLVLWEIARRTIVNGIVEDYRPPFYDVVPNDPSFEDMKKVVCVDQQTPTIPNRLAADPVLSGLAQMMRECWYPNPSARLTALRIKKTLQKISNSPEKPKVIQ
Sequence of CDK4 CCND3 (human) (P11802 whole entry, looked up): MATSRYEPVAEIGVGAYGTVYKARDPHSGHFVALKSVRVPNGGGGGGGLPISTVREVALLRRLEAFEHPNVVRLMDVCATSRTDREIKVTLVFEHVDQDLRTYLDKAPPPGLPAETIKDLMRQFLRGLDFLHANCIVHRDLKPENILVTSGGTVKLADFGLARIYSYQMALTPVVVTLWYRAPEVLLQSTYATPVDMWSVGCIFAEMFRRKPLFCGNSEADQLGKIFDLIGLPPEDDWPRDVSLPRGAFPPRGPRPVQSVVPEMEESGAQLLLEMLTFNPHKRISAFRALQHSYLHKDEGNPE
Sequence of CDK4 CCND3 (human) (P30281 whole entry, looked up): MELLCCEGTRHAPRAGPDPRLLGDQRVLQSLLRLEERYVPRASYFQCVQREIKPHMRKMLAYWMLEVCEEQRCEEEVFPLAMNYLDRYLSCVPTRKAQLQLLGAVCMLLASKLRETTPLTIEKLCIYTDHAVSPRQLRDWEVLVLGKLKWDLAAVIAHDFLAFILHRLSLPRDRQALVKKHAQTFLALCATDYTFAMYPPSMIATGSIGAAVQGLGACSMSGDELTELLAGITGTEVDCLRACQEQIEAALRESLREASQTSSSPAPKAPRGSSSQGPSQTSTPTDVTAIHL
Sequence of RPS6KA4 KD2 (human) (O75676 whole entry, looked up): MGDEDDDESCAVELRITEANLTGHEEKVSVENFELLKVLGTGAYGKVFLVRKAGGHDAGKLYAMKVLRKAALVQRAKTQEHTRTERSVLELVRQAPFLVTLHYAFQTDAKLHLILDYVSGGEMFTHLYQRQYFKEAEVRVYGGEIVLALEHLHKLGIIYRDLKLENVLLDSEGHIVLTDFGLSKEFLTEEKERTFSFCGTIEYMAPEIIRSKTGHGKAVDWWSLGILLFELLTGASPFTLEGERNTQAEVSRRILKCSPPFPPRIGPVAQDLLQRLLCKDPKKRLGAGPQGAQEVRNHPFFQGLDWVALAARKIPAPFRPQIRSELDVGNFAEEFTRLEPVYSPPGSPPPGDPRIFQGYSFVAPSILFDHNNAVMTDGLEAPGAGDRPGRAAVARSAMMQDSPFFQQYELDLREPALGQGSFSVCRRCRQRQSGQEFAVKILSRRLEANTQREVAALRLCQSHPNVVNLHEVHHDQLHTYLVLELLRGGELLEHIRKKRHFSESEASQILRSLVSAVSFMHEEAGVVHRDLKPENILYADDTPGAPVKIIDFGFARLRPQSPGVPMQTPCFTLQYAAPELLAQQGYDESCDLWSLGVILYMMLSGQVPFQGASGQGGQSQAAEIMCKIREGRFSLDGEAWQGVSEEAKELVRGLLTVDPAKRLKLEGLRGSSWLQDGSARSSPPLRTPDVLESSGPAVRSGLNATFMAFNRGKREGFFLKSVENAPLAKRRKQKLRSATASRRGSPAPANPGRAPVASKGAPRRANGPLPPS

Compound: O=C1c2ccccc2-c2nc3nnnn3nc21
- residual activity (ACVRL1 (human)): 105%
- residual activity (AURKA (human)): 71.4%
- residual activity (CDK1 CCNB1 (human)): 48%
- residual activity (CDK2 CCNA2 (human)): 70.3%
- residual activity (CDK4 CCND3 (human)): 68.1%
- residual activity (CDK5 CDK5R1 p25 (human)): 46.4%
- residual activity (CLK4 (human)): 78.3%
- residual activity (CSNK2A1 (human)): 101%
- residual activity (CSNK2A2 (human)): 76.2%
- residual activity (EPHA1 (human)): 73.1%
- residual activity (EPHA2 (human)): 100%
- residual activity (EPHB3 (human)): 90.2%
- residual activity (ERBB2 (human)): 22.2%
- residual activity (FGFR4 (human)): 58%
- residual activity [1]: 5.79%
- residual activity (GRK4 (human)): 68.4%
- residual activity (GRK6 (human)): 58%
- residual activity (HCK (human)): 84%
- residual activity (HIPK2 (human)): 107%
- residual activity (MAP3K9 (human)): 63.3%
- residual activity (MAPKAPK3 (human)): 76%
- residual activity (MET (human)): 83.3%
- residual activity (NEK11 (human)): 88%
- residual activity (NTRK1 (human)): 76.6%
- residual activity (NUAK2 (human)): 92.5%
- residual activity (PIM1 (human)): 94.1%
- residual activity (PKN2 (human)): 77.1%
- residual activity (PNCK (human)): 83.4%
- residual activity (PRKCE (human)): 99%
- residual activity (ROS1 (human)): 91.1%
- residual activity (RPS6KA3 KD1 KD2 (human)): 75.1%
- residual activity (RPS6KA4 KD2 (human)): 72.2%
- residual activity (RPS6KB2 (human)): 86.3%
- residual activity (SRMS (human)): 6.33%
- residual activity (SRPK2 (human)): 95.8%
- residual activity (TBK1 (human)): 87%
- residual activity (ULK1 (human)): 107%
- residual activity (ULK2 (human)): 105%
- residual activity (VRK1 (human)): 90.5%
- residual activity (WEE1 (human)): 70.9%
- residual activity (WNK2 (human)): 143%
